Data as given in patent US10669270B2, “Amide-sulfamide derivatives, compositions, and uses related to CXCR4 inhibition” (Emory University, priority 2016, dated 2020).
Entries after “also recorded” stand apart in the source; their conditions may differ.

Assays:
xylene-induced ear edema = test: Xylene-induced ear inflammation suppression test; type: in vivo, mice; settings: for inflammation suppression (mouse ear edema): 10 mg/kg i.p., 30 minutes after xylene, sacrificed 2 hours later; for histological analysis of ear: ear damage, edema, inflammatory cells
Protocol: Five mice per group were used to determine the effect of the CXCR4 modulators. The inner and outer surfaces of the right ear of each mouse were treated with a total 30 μL of xylene for the induction of ear edema, whereas the left ear was treated with 30 μL of saline, which was used as a non-inflammation control. The selected compounds were dissolved in 10% DMSO and 90% of 45% (2-hydroxypropyl)-β-cyclodextrin (CD) in PBS. Thirty minutes after the application of xylene, 14 selected compounds were administered intraperitoneally (i.p.) at 10 mg/kg. Control animals received corresponding i.p. injections of the vehicle. The animals were sacrificed 2 hours later, and two ear plugs (7 mm in diameter) were removed from both the treated ear and the untreated ear. Weights of treated and untreated ear plugs were measured. The difference in weight of the two ear plugs was taken as a measure of edematous response. The inflammation-suppression percentage was calculated by comparing the drug-treated group to the control group.

[1] = tested on: CXCR4/CXCL12-mediated Akt phosphorylation; test: Western blot analysis of Akt phosphorylation; type: cell-based
Protocol: Forty micrograms of protein were separated by SDS-PAGE and transferred to a PVDF membrane (Bio-Rad, Hercules, Calif., USA). The membrane was blocked for 30 min in a blocking solution (5% milk in Trisbuffered saline containing 0.1% Tween-20) and incubated overnight at 4° C. using monoclonal rabbit anti-phospho-Akt (Ser473) antibody (Cat No., 9271) and monoclonal rabbit anti-Akt (pan) antibody (cat No., 4691) at 1:500 in blocking solution. All antibodies were purchased from Cell Signaling Technology (Danvers, USA). The membrane was incubated for 1 hour with goat anti-rabbit IgG (H+L)-HRP conjugated secondary antibody at 1:10000 (Cat No. 1706515; Bio-rad, Hercules, USA) after washing. Enzyme-linked chemiluminescence was performed to detect hybridized protein bands.

[2] = tested on: bacterial-infected J774A.1 macrophages; test: TNF-α secretion by bacterial-infected macrophages; type: cell-based
[3] = Preliminary pharmacokinetic study (plasma stability); type: in vitro ADME
MDA-MB-231 cells [4] = test: Cytotoxicity screening, MDA-MB-231; type: cell-based; settings: at 10 μM
MCF-10A cells = test: Cytotoxicity screening, MCF-10A; type: cell-based; settings: at 10 μM
MDA-MB-231 cells [5] = test: Matrigel invasion assay; type: cell-based; settings: compounds 100 nM; CXCL12α 200 ng/mL; 22 hours
Protocol: Matrigel invasion assay was performed by using a Matrigel invasion chamber from Corning Biocoat (Bedford, Mass.). CXCL12α(200 ng/mL; R & D Systems, Minneapolis, Minn.) was added to the bottom chamber to induce the invasion of MDA-MB-231 cells through the Matrigel. The selected compounds (100 nM) or AMD3100 were added to the cells before the cells were seeded in the top chamber. The Matrigel invasion chamber was incubated for 22 hours in a humidified cell culture incubator. First, non-invading cells were removed from the top of the Matrigel with a cotton-tipped swab. Invading cells on the filter at the bottom of the Matrigel were fixed in methanol and stained with hematoxylin and eosin (H & E). The percent of invasion was determined by counting the H&E stained cellc.

CXCR4 = biological target: T1, CXCR4 (Homo sapiens, UniProt P61073); test: Primary binding affinity screening (competition with biotinylated TN14003 on MDA-MB-231 cells)
T1 construct: endogenous in cells; host or cells: MDA-MB-231
T1 sequence (P61073 whole entry): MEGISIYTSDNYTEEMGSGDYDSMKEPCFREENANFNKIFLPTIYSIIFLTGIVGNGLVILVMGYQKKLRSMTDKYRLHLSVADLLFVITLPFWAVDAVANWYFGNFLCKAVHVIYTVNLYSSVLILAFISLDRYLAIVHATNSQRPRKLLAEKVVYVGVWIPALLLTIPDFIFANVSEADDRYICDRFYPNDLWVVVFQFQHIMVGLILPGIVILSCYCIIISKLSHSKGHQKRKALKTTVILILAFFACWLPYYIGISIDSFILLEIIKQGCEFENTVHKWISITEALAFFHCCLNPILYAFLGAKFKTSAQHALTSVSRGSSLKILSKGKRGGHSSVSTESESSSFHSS
Protocol: For binding affinity assay, 2×10^4 MDA-MB-231 cells in 300 μL of cell culture medium were seeded in an 8-well slide chamber 2 days before the experiments were conducted. Various concentrations of different compounds (1, 10, 100, or 1000 nM) were added to the separate wells and incubated for 10 minutes at room temperature, and then the cells were fixed in 4% ice-cold paraformaldehyde. The cells were rehydrated in phosphate-buffered saline (PBS). The slides were subsequently incubated for 30 minutes at room temperature with 0.05 μg/mL biotinylated TN14003, washed three times with PBS, and incubated in streptavidin-rhodamine (1:150 dilution; Jackson ImmunoResearch Laboratories, West Grove, Pa.) for 30 minutes at room temperature. Finally, the slides were washed with PBS and mounted in an anti-fade mounting solution (Molecular Probes, Eugene, Oreg.), and the samples were analyzed on a Nikon Eclipse E800 microscope.

| SMILES | inflammation suppression (mouse ear edema) (xylene-induced ear edema) [%] | histological analysis of ear (xylene-induced ear edema) | melting point [°C] | Matrigel invasion inhibition compared with AMD3100 (MDA-MB-231 cells [5]) | also measured |
| --- | --- | --- | --- | --- | --- |
| Cc1ccc(S(=O)(=O)NCc2ccc(CNC(=O)c3ccc(F)cc3)cc2)cc1 [IIj, 4-Fluoro-N-(4-((4-methylphenylsulfonamido)methyl)benzyl)benzamide] | 75 | attenuated ear edema and damage substantially | 187 to 189 |  | CXCR4/CXCL12-mediated phosphorylation of Akt [1]: blocked the CXCR4/CXCL12-mediated phosphorylation of Akt in a dose-dependent manner; attenuation of the amount of TNF-α [2]: 59%; plasma stability [3]: favourable plasma stability; inhibition of proliferation (cytotoxicity) (MDA-MB-231 cells [4]): did not inhibit the proliferation; inhibition of proliferation (cytotoxicity) (MCF-10A cells): did not inhibit the proliferation |
| O=C(NCc1ccc(CNS(=O)(=O)c2ccc3c(c2)CCO3)cc1)c1cccnc1 [Ia, N-(4-((2,3-dihydrobenzofuran-5-sulfonamido)methyl)benzyl)nicotinamide] |  |  | 137 to 139 | better activity than AMD3100 |  |
| O=C(NCc1ccc(CNS(=O)(=O)c2ccc3c(c2)CCO3)cc1)c1scc2c1OCCO2 [Ik] |  |  |  | better activity than AMD3100 |  |
| O=C(NCc1ccc(CNS(=O)(=O)c2ccccc2)cc1)c1ccccc1 [IIIa, N-(4-(phenylsulfonamidomethyl)benzyl)benzamide] | 62 |  | 139 to 141 |  | potency compared with AMD3100 (CXCR4; EC relative to AMD3100): 1000 fold; EC (CXCR4; MDA-MB-231 cells, compounds at 1, 10, 100, or 1000 nM, biotinylated TN14003): 1 nM |
| Cc1nnsc1C(=O)NCc1ccc(CNS(=O)(=O)c2ccc(F)c(F)c2)cc1 [Im, N-(4-((3,4-difluorophenylsulfonamido)methyl)benzyl)-4-methyl-1,2,3-thiadiazole-5-carboxamide] | 54 | significantly attenuated the ear damage and decreased the number of inflammatory cells |  | comparable inhibition to the reference drug AMD3100 |  |
| Cc1cc(C(=O)NCc2ccc(CNS(=O)(=O)c3ccc4c(c3)CCO4)cc2)n(C)n1 [If, N-(4-((2,3-dihydrobenzofuran-5-sulfonamido)methyl)benzyl)-1,3-dimethyl-1H-pyrazole-5-carboxamide] |  |  | 176 to 178 | comparable inhibition to the reference drug AMD3100 |  |
| O=C(NCc1ccc(CNS(=O)(=O)c2ccc(F)cc2F)cc1)c1cncnc1 [Ig, N-(4-((2,4-difluorophenylsulfonamido)methyl)benzyl)pyrimidine-5-carboxamide] | 56 | significantly attenuated the ear damage and decreased the number of inflammatory cells |  | better activity than AMD3100 | CXCR4/CXCL12-mediated phosphorylation of Akt [1]: blocked the phosphorylation of Akt; also recorded: blocked the CXCR4/CXCL12-mediated Akt phosphorylation in a dose-dependent manner; TNF-α secretion ([2]; result in words): significantly suppressed |
